Tests used:
Blg163 [1] = system: T1, Blg163; assay: hydrolysis kinetics, […] substrate; assay type: biochemical, uncultured bacterium (coral microbial metagenome); conditions: citrate buffer, pH 7.0, 30 °C, 5 min
T1 construct: full-length ORF 1341 bp, 447 residues (Met1 to Ser447), GH1; pEASY-E1 vector, His-tag (Ni-NTA) apparently kept; expressed in E. coli BL21(DE3) pLysS; best hits Rhodobacteraceae bacterium NVK46632.1 (homologue)

Blg163 [2] = system: T1, Blg163; assay: p-nitrophenol release, absorbance at […] nm; assay type: biochemical, uncultured bacterium (coral microbial metagenome); conditions: citrate buffer, pH 7.0, 30 °C, 5 min

Row | SMILES | Km (Blg163 [1]) [µM] | Km (Blg163 [2]) [µM]
1 | OC[C@H]1O[C@@H](O[C@H]2[C@H](O)[C@@H](O)C(O)O[C@@H]2CO)[C@H](O)[C@@H](O)[C@@H]1O (stereo partly drawn) [cellobiose] | 450 | –
2 | OC[C@H]1O[C@@H](OC[C@H]2OC(O)[C@H](O)[C@@H](O)[C@@H]2O)[C@H](O)[C@@H](O)[C@@H]1O (stereo partly drawn) [gentiobiose] | 720 | –
3 | O=[N+]([O-])c1ccc(O[C@@H]2O[C@H](CO)[C@@H](O)[C@H](O)[C@H]2O)cc1 [p-Nitrophenyl-β-D-glucopyranoside] | – | 320

Reference: article PMC8700683, “A Novel Neutral and Mesophilic β-Glucosidase from Coral Microorganisms for Efficient Preparation of Gentiooligosaccharides” (Foods, 2021)
